Peptide text beside a SMILES is read from it.
Legend:
[1] = biological target: peptide:MHC (Homo sapiens, UniProt P04439, D140Y/D185E/D98H/E176V/E277Q/G131W/G231S/I119V/I121R/I166T/I218V/N151K/N90K/P208A/P217A/Q86G/Q94H/R138H/R169H); test: TCR gene transfer into healthy donor T cells, surface expression by pMHC staining; type: cell-based; conditions: Table 4; T cells transduced with TCR specific for the epitope
Description: (§1) Identified TCRα and TCRβ genes were codon optimized (GeneArt, Regensburg, Germany) and cloned into the pMP71 vector (a kind gift of prof. Wolfgang Uckert, MDC, Berlin, Germany) using a TCRβ-2A-TCRα cassette that was flanked by NotI and EcoRI restriction sites. Upon activation with anti-CD3 mAb OKT3, PBMCs from healthy donors were transduced with TCR-encoding retroviruses (pMP71) or empty vector that were produced by a co-culture of 293T and Phoenix-Ampho packaging cells, as described previously in Lamers et al., Cancer Gene Ther.;13(5):503-509 (2006), doi:10.1038/sj.cgt.7700916, and Straetemans G, Clin Dev Immunol, 2012. Staining for surface-expressed TCR transgenes was performed as described above (FIG. 5A,B).
as §1, with “TCRα” for “Identified TCRα”, “TCR13-2A-TCRα” for “TCRβ-2A-TCRα”, “2012.” for “2012. Staining for surface-expressed TCR transgenes was performed as described above (FIG. 5A,B).”
Staining for surface-expressed TCR transgenes was performed as described above. […] Note that for a single epitope (EVI; SEQ ID NO:24) pMHC complexes were insensitive to detect TCR T cells and replaced by stainings with antibodies directed against TCR-Vb7.1 and CD137. The expression of CD137 was measured following 48 h stimulation with EVI epitope-loaded BSM cells, and threshold for inclusion again being expression in more than 5% of cells in the CD3-positive cell population in at least 2 donors.

[2] = system: CD8+ T cells; test: peptide:MHC multimer/tetramer staining of enriched T cells (flow cytometry); type: cell-based, human; conditions: for pMHC staining % pMHC+ CD8+ in CD3+: Table 4, enriched T cells after enrichment cycles
Method: Enrichment of epitope-specific CD8 T cells was performed according to the protocol described by Butler et al., Clin Cancer Res.;13(6):1857-1867 (2007), doi:10.1158/1078-0432, but included the following amendments. CD8+ T lymphocytes were collected from PBMCs by magnetic-activated cell sorting (MACS) according to the CD8 isolation kit (Miltenyi Biotec). CD8+ T cells with >95% purity were subsequently cultured in T cell medium supplemented with IL-2 (36 IU/mL; but no gentamycin) for 1 day, after which expansion cycles started. K562ABC cells (kindly provided by prof. Bruce Levine, University of Pennsylvania, PA) were loaded with 10 μg/ml ROPN1 and/or ROPN1B peptide and incubated for 5 h at RT in serum-free medium, after which cells were washed and fixed with 0,1% paraformaldehyde. After washing, K562ABC cells were suspended at 0.1×10^6/mL and co-cultured with T cells in a 1:20 ratio. IL-2 (36 IU/mL) and IL-15 ([…]) were added at days 1 and 3 days after start of co-culture, and after 6 days, T cells were counted, suspended at 2×10^6/mL and rested for 1 day, after which the next cycle commenced (this schedule continued up to 4 or 5 cycles). Following 4 and 5 cycles, T cells were stained with pMHC multimers (HLA*0201/MLN, Immudex, Copenhagen, Denmark). pMHC-PE were pre-incubated at RT for 10 min followed by incubation with 7AAD, anti-CD3-FITC and anti-CD8-APC for 20 min. Cells were fixed with 1% paraformaldehyde and TCR expression was measured with flow cytometry and analyzed using FlowJoX software. FIG. 4A schematically depicts the procedure to enrich epitope-specific T cells, and obtainthe corresponding TCR genes.
Following enrichment, T cells were tested for ROPN1 and/or ROPN1B epitope-specific IFNY production. To this end, T2 cells (1×10^6/mL) were loaded with peptide (20 ng/mL) for 30 min, after which T cells (1×10^5) were cultured in a 1:1 ratio with T2 cells in a round bottom 96-wells plate for 18 h. Supernatant was collected and IFN-γ production was measured with an Enzyme-linked immunosorbent assay (ELISA, BioLegend) according to the manufacturer's protocol (FIG. 9A). T2 cells loaded with an irrelevant peptide were included as a negative control. T cell IFNg production was considered epitope-specific in case levels exceeded 200 pg/ml, and levels were minimally twice as high as for irrelevant peptide (see for full listing of criteria, FIG. 8). T cells that fulfilled these criteria were stained with peptide:MHC (pMHC) tetramers to determine the frequency of epitope-specific T cells. Empty Loadable HLA Tetramers (5 μL, Tetramer shop, Kongens Lyngby, Denmark) were incubated with 0.5 μL peptide (200 μM) for 30 min on ice. Complexes of pMHC were centrifuged (3300 g, 5 min) and incubated with 0.1×10^6 T cells for 15 min at 37° C. in the dark. Next, an antibody cocktail containing CD3-FITC (1:30, BD) and CD8-APC (1:300, eBiosciences) was added and incubated for an additional 30 min at 4° C. in the dark. Finally, T cells were washed twice and fixed with 1% paraformaldehyde (PFA), after which events were acquired with FACSCelesta (BD) and analyzed using FlowJoX software.

| Surface expression % pMHC+ in CD3+ [1] | SMILES | pMHC staining % pMHC+ CD8+ in CD3+ [2] | enriched T cells binding MLN/HLA-A2 complexes ([2]; after 4 cycles of co-culture with epitope-loaded aAPC) | enriched T cells binding MLN/HLA-A2 complexes ([2]; after 5 cycles of co-culture with epitope-loaded aAPC) |
| --- | --- | --- | --- | --- |
| 49.7% | CSCC[C@H](NC(=O)[C@H](CCC(N)=O)NC(=O)[C@H](C)N)C(=O)N[C@@H](Cc1c[nH]c2ccccc12)C(=O)N[C@@H](CCCCN)C(=O)N[C@H](C(=O)N[C@H](C(=O)N[C@@H](CC(N)=O)C(=O)N[C@@H](CC(C)C)C(=O)O)C(C)C)C(C)C (H-AQMWKVVNL-OH; N-terminus and C-terminus assumed) | 2.58% |  |  |
| 5.02% | CC[C@H](C)[C@H](NC(=O)[C@H](Cc1ccc(O)cc1)NC(=O)[C@@H](NC(=O)[C@H](Cc1ccc(O)cc1)NC(=O)[C@H](CC(C)C)NC(=O)[C@@H](N)Cc1ccccc1)[C@@H](C)O)C(=O)N[C@@H](C)C(=O)N[C@@H](CCC(=O)O)C(=O)N[C@H](C(=O)O)C(C)C (H-FLYTYIAEV-OH; N-terminus and C-terminus assumed) | 1.34% |  |  |
| 33.2% | CC[C@H](C)[C@H](NC(=O)[C@H](Cc1ccc(O)cc1)NC(=O)[C@@H](NC(=O)[C@H](Cc1ccc(O)cc1)NC(=O)[C@H](CC(C)C)NC(=O)[C@@H](N)Cc1ccccc1)[C@@H](C)O)C(=O)N[C@@H](C)C(=O)N[C@@H](CCCCN)C(=O)N[C@H](C(=O)O)C(C)C (H-FLYTYIAKV-OH; N-terminus and C-terminus assumed) | 2.76% |  |  |
| 49.7% | CC[C@H](C)[C@H](NC(=O)[C@H](Cc1ccc(O)cc1)NC(=O)[C@H](CC(N)=O)NC(=O)[C@H](CC(C)C)NC(=O)[C@@H](N)CCSC)C(=O)N[C@@H](CCC(=O)O)C(=O)N[C@@H](CCC(N)=O)C(=O)N[C@@H](CCC(=O)O)C(=O)N[C@H](C(=O)O)C(C)C (H-MLNYIEQEV-OH; N-terminus and C-terminus assumed) | 13.3% | 20% | 62% |

— patent US20240131155A1, “T CELLS FOR USE IN THERAPY” (Erasmus University Medical Center Rotterdam, priority 2021, published 2024)
